Read-outs that look alike come from different tables or passages of the source.
Assays:
MRSA = experiment: Growth of microorganisms on polyurethane specimens; assay type: cell-based, Staphylococcus aureus; design: key: −: complete inhibition; +: slight growth (growth observed at dilutions between 10^−1-10^−3); ++: moderate growth (growth observed at dilutions between 10^−4-10^−6); +++: high growth (growth at dilutions between 10^−7-10^−12); conditions: 24 h incubation in bacteria growth medium
Text: (§1) Extensive microbiology work has also been completed. […] Key: −complete inhibition; +slight growth (growth observed at dilutions between 10^−1-10^−3); ++ moderate growth (growth observed at dilutions between 10^−4-10^−6); +++ high growth (growth at dilutions between 10^−7-10^−12).

E. coli = experiment: Growth of microorganisms on polyurethane specimens; assay type: cell-based, Escherichia coli; design: key: −: complete inhibition; +: slight growth (growth observed at dilutions between 10^−1-10^−3); ++: moderate growth (growth observed at dilutions between 10^−4-10^−6); +++: high growth (growth at dilutions between 10^−7-10^−12); conditions: 24 h incubation
Text: as §1

P aeruginosa = experiment: Growth of microorganisms on polyurethane specimens; assay type: cell-based, Pseudomonas aeruginosa; design: key: −: complete inhibition; +: slight growth (growth observed at dilutions between 10^−1-10^−3); ++: moderate growth (growth observed at dilutions between 10^−4-10^−6); +++: high growth (growth at dilutions between 10^−7-10^−12); conditions: 24 h incubation
Text: as §1

K. pneumoniae = experiment: Growth of microorganisms on polyurethane specimens; assay type: cell-based, Klebsiella pneumoniae; design: key: −: complete inhibition; +: slight growth (growth observed at dilutions between 10^−1-10^−3); ++: moderate growth (growth observed at dilutions between 10^−4-10^−6); +++: high growth (growth at dilutions between 10^−7-10^−12); conditions: 24 h incubation
Text: as §1

S. mutans [1] = experiment: Reported MIC for S. mutans; assay type: cell-based; conditions: Streptococcus mutans, conversion of the reported 0.125%
S. mutans [2] = conditions: reported; cited from earlier work
[3] = composite resins supplemented with pulverised CHX diacetate; cited from earlier work
[4] = Elution of CHX from CHX-HMP functionalised materials (UV spectrophotometry); assay type: physicochemical
Experimental: 200 mL of the colloidal suspension was prepared using freshly-prepared reagents (to prevent hydrolysis of the HMP). The specimen was immersed in the rapidly stirred colloid for 30 s, then removed and immersed in deionised water for 10 s to rinse, and then blotted to remove excess liquid and allowed to dry in air.
8 specimens of each material coated with CHX-HMP-5 and CHX-HMP-0.5 nanoparticles were placed in individually labelled cuvettes suitable for ultraviolet spectrophotometry. Deionised water was added to the cuvettes and they were sealed tightly using cuvette lids. These were agitated on an orbital shaker rotating at 150 rpm. The cuvettes were kept sealed and were sampled for chlorhexidine concentration at intervals over a 60-90 day period. Control sets were prepared where the specimens were immersed in deionised water and where they were immersed in a 25 μM CHX solution, which is the concentration of aqueous CHX residual in the CHX-HMP-5 colloidal suspension.

[5] = test system: Methicillin-resistant Staphylococcus aureus (MRSA; NCTC13142); experiment: Minimum inhibitory concentration, planktonic bacteria; assay type: cell-based; conditions: 16 h, 37° C., OD 620 nm, listed as 25 μM chlorhexidine
Experimental: (§2) Methicillin-resistant Staphylococcus aureus (MRSA; NCTC13142) was cultured in Mueller-Hinton media. Pseudomonas aeruginosa NCIMB 8626 (ATCC 9027) was cultured in nutrient broth (NB) or nutrient agar (NA). All cultures were incubated at 37° C. aerobically throughout the study.
(§3) Cultures were incubated for 16 h at 37° C. in aerobic conditions, optical density (CD) readings were measured at 620 nm (A620) using a standard microtitre plate reader (SpectroStar Nano; BMG Labtech).

[6] = test system: Pseudomonas aeruginosa NCIMB 8626 (ATCC 9027); experiment: as above; assay type: cell-based; conditions: P. aeruginosa, 16 h; value for CHX-HMP-5 is minimum tested
Experimental: as §2, §3

MRSA biofilm = experiment: Static biofilm model (crystal violet); assay type: cell-based, Staphylococcus aureus; conditions: MRSA 48 h static biofilm, 2 h treatment; word qualifies 'disruption'
Experimental: (§4) Bacterial strains were initially grown for 16 h and these stationary phase cultures were harvested by centrifugation, and adjusted to OD650=0.1. Biofilms were grown in 50 μL appropriate media at 37° C. for 48 h, aerobically then the media was removed and discarded. Loosely adherent bacteria were removed by washing the biofilms twice with 100 μl PBS. Chlorhexidine or chlorhexidine nanoparticles diluted in PBS were added to the biofilms using a doubling dilution as described above (0-25 μM). The plates were incubated for 2 h at 37° C.; to estimate biomass, unattached cells were gently aspirated and discarded, and adherent cells were washed twice with PBS and stained with crystal violet (0.25% w/v) for 10 min; following a further two washes with PBS, cell-bound crystal violet was re-solubilized with 7% acetic acid, and absorbance measured at 595 nm (A595).

P. aeruginosa biofilm = experiment: Static biofilm model (crystal violet); assay type: cell-based, Pseudomonas aeruginosa; conditions: P. aeruginosa 48 h static biofilm, 2 h treatment; word qualifies 'disruption'
Experimental: as §4

MRSA bacteria = experiment: Microbiology on EVA samples functionalised with CHX nanoparticles; assay type: cell-based, Staphylococcus aureus; conditions: EVA specimens, 18 h incubation in 1 mL growth medium
Experimental: EVA specimens were functionalised by 30 s immersion in a colloidal suspension of CHX-HMP-5 in water followed by 10 s immersion in deionised water (“low concentration”) or without subsequent immersion in deionised water (“high concentration”). These samples were then exposed to cultures of MRSA bacteria. They were then immersed in 1 mL, growth medium and incubated for 18 h. According to the release experiments in this time the EVA specimen should release around 6 μM per m^2 material. Surface area of the specimen was 0.000182 m^2 so the expected total release should be […] CHX into 1 mL giving a resultant concentration of 1.1 μM CHX.

[7] = Elution of CHX from functionalised borosilicate glass surfaces (UV spectrophotometry); assay type: physicochemical; conditions: coated glass coverslips in deionised water, 14-day period
Experimental: Chlorhexidine based salts were prepared by combining, at room temperature and under rapid stirring, 100 mL chlorhexidine (as the digluconate salt in aqueous solution at a concentration of 10 mM) and 100 mL of one of a range of anions in aqueous solution, also at an initial concentration of 10 mM, to effect final total concentrations of 5 mM of each. The precipitate was then allowed to adhere on borosilicate glass coverslips. Coverslips (Agar Scientific, Stansted, UK) were cleaned by 10 minutes ultrasonication in acetone followed by 10 minutes ultrasonication in industrial methylated spirits and allowed to air dry. They were immersed in the 200 mL suspension described above while it was rapidly stirred using a magnetic stirring plate. Coverslips were immersed for 30 seconds, removed, immersed in deionised water for 10 seconds to rinse, blotted to remove excess liquid and allowed to dry in air. The elution of soluble CHX from the functionalised glass surfaces was examined using ultraviolet spectrophotometry. 8 specimens of each type were placed in individually labelled cuvettes suitable for ultraviolet spectrophotometry. 2.5 mL deionised water was added to the cuvettes and they were sealed tightly using cuvette lids. These were agitated on an orbital shaker rotating at 150 rpm. […]

[8] = result in words, 'Little or no' continues 'significant release'

N=C(NCCCCCCNC(=N)NC(=N)Nc1ccc(Cl)cc1)NC(=N)Nc1ccc(Cl)cc1 [80 μM CHX, chlorhexidine]
growth of microorganisms on polyurethane specimens (MRSA): ++ | growth of microorganisms on polyurethane specimens (E. coli): ++ | growth of microorganisms on polyurethane specimens (P aeruginosa): ++ | growth of microorganisms on polyurethane specimens (K. pneumoniae): ++

N=C(NCCCCCCNC(=N)NC(=N)Nc1ccc(Cl)cc1)NC(=N)Nc1ccc(Cl)cc1 [CHX digluconate]
MIC (S. mutans [1]): ~1400 µM | MIC (S. mutans [2]): 0.125 % by mass

N=C(NCCCCCCNC(=N)NC(=N)Nc1ccc(Cl)cc1)NC(=N)Nc1ccc(Cl)cc1 [CHX diacetate]
time to plateau of CHX release [3]: around 7 days

N=C(NCCCCCCNC(=N)NC(=N)Nc1ccc(Cl)cc1)NC(=N)Nc1ccc(Cl)cc1 [Comparative Example 6, chlorhexidine]
CHX Release Period [4, 8]: No release

N=C(NCCCCCCNC(=N)NC(=N)Nc1ccc(Cl)cc1)NC(=N)Nc1ccc(Cl)cc1 [Comparative Example 4, chlorhexidine]
CHX Release Period [4, 8]: No release

N=C(NCCCCCCNC(=N)NC(=N)Nc1ccc(Cl)cc1)NC(=N)Nc1ccc(Cl)cc1 [compound 8, chlorhexidine]
MIC, soluble CHX conc [5]: not efficacious | MIC, soluble CHX conc [6]: P.a.: (25 μM) | Effect on biofilm (MRSA biofilm): MRSA: slight | Effect on biofilm (P. aeruginosa biofilm): P.a.: slight | recovery of MRSA / efficacy against MRSA (MRSA bacteria): not efficacious

N=C(NCCCCCCNC(=N)NC(=N)Nc1ccc(Cl)cc1)NC(=N)Nc1ccc(Cl)cc1 [Comparative Example 5, chlorhexidine]
CHX Release Period ([4]; functionalised material in deionised water, 60-90 day period): >60 days

N=C(NCCCCCCNC(=N)NC(=N)Nc1ccc(Cl)cc1)NC(=N)Nc1ccc(Cl)cc1 [compound 2, chlorhexidine]
CHX Release Period [7]: 48 to 72 h

N=C(NCCCCCCNC(=N)NC(=N)Nc1ccc(Cl)cc1)NC(=N)Nc1ccc(Cl)cc1 [Comparative Example 7, chlorhexidine]
CHX Release Period [4, 8]: Little or no
